Test results published in patent US20130131018A1, “SUBSTITUTED ISOQUINOLINES AND THEIR USE AS TUBULIN POLYMERIZATION INHIBITORS” (Exonhit S.A., priority 2010, published 2013).
Structures can show the parent of a compound that is named as a salt.

Test system: K562 cell line
Assay: MTT assay: cytotoxicity against the K562 cell line
Assay type: cell-based
Settings: Homo sapiens, K562 cells, 72 h, growth inhibition
Method: Assessment of Cell Viability via MTT Assay: Cytotoxicity of compounds against the K562 cell line was assessed using the [3-(4,5-dimethylthiazol-2-yl)-2,5-diphenyl tetrazolium bromide] (MTT) assay. Fifteen thousand tumor cells were seeded into wells of flat-bottomed 96-well plates. An amount of 2 μL of a dilution series of each compound dissolved in DMSO was added to 198 μL of appropriate growth medium at three replicates per concentration and the plates were incubated in a 5% CO2 incubator at 37° C. After 72 h, the number of metabolically active cells was determined by MTT assay. Absorbance of each well was measured at 550 nm on a Tecan Sunrise reader. Dose-response curves for growth inhibition were generated as a percentage of untreated control. IC50 was determined by nonlinear regression (Prism, Graph Pad Software, Inc.).

Compound	IC50 [nM]
CCOc1ccc2c(Cc3cc(OC)c(OC)c(OC)c3)cncc2c1NS(=O)(=O)NC(=O)OC(C)(C)C [Compound 7, tert-butyl N-(7-ethoxy-4-(3,4,5-trimethoxybenzyl)isoquinolin-8-yl)sulfamoylcarbamate]	147
CCOc1c(OC)cc(Cc2cncc3c(OC)c(OC)ccc23)cc1OC [Compound 9, 4-(4-Ethoxy-3,5-dimethoxybenzyl)-7,8-dimethoxyisoquinoline hydrochloride]	376
CCOc1ccc2c(Cc3cc(OC)c(OCC)c(OC)c3)cncc2c1 [Compound 13, 7-Ethoxy-4-(4-ethoxy-3,5-dimethoxybenzyl)isoquinoline hydrochloride]	349
CCOc1ccc2c(Cc3cc(OC)c(OC)c(OC)c3)cncc2c1 [Compound 16, 4-(3,4,5-Trimethoxybenzyl)-7-ethoxyisoquinoline hydrochloride]	435
CCOc1ccc2c(Cc3cc(OC)c(OCCOC)c(OC)c3)cncc2c1O [Compound 22, 4-(4-(2-Methoxyethoxy)-3,5-dimethoxybenzyl)-7-ethoxyisoquinolin-8-ol hydrochloride]	142
COc1ccc2c(Cc3cc(OC)c(OC)c(OC)c3)cncc2c1 [Compound 27, 4-(3,4,5-Trimethoxybenzyl)-7-methoxyisoquinoline hydrochloride]	864
CCOc1ccc2c(Cc3cc(OC)c(OCC4CCC4)c(OC)c3)cncc2c1O [Compound 34, 4-(4-(Cyclobutylmethoxy)-3,5-dimethoxybenzyl)-7-ethoxyisoquinolin-8-ol hydrochloride]	65
CCOc1ccc2c(Cc3cc(OC)c(OCC(CC)CC)c(OC)c3)cncc2c1O [Compound 37, 7-Ethoxy-4-(4-(2-ethylbutoxy)-3,5-dimethoxybenzyl)isoquinolin-8-ol hydrochloride]	899
CCOc1ccc2c(Cc3cc(OC)c(OCC(C)(C)C)c(OC)c3)cncc2c1O [Compound 39, 4-(3,5-Dimethoxy-4-(neopentyloxy)benzyl)-7-ethoxyisoquinolin-8-ol hydrochloride]	400
CCOc1ccc2c(C(=NO)c3cc(OC)c(OC)c(OC)c3)cncc2c1 [Compound 41, (7-ethoxyisoquinolin-4-yl)(3,4,5-trimethoxyphenyl)methanone oxime hydrochloride]	123
CCOc1ccc2c(C(=S)c3cc(OC)c(OC)c(OC)c3)cncc2c1 [Compound 42, (7-Ethoxyisoquinolin-4-yl)(3,4,5-trimethoxyphenyl)methanethione hydrochloride]	60.7
CCOc1ccc2c(Cc3cc(OC)c(OCC)c(OC)c3)cncc2c1OC [Compound 46, 7-Ethoxy-4-(4-ethoxy-3,5-dimethoxybenzyl)-8-methoxyisoquinoline hydrochloride]	688
CCOc1ccc2c(C(=O)c3cc(OC)c(OCC)c(OC)c3)cncc2c1OC [Compound 47, (4-Ethoxy-3,5-dimethoxyphenyl)-(7-ethoxy-8-methoxyisoquinolin-4-yl)-methanone hydrochloride]	129
CCOc1ccc2c(Cc3cc(OC)c(OCC(=O)OC)c(OC)c3)cncc2c1O [Compound 48, Methyl 2-(4-((7-ethoxy-8-hydroxyisoquinolin-4-yl)methyl)-2,6-dimethoxyphenoxy)acetate hydrochloride]	812
CCOc1ccc2c(Cc3cc(OC)c(OCC#N)c(OC)c3)cncc2c1O [Compound 50, 2-(4-((7-Ethoxy-8-hydroxyisoquinolin-4-yl)methyl)-2,6-dimethoxyphenoxy)acetonitrile hydrochloride]	69.8
CCOc1ccc2c(Cc3cc(OC)c(NCc4ccccc4)c(OC)c3)cncc2c1O [Compound 51, 4-(4-(Benzylamino)-3,5-dimethoxybenzyl)-7-ethoxyisoquinolin-8-ol hydrochloride]	741
CCOc1ccc2c(Cc3cc(OC)c(Nc4ccccc4)c(OC)c3)cncc2c1O [Compound 52, 4-(3,5-Dimethoxy-4-(phenylamino)benzyl)-7-ethoxyisoquinolin-8-ol hydrochloride]	118
CCOc1ccc2c(C(=O)c3cc(OC)c(OCC)c(OC)c3)cncc2c1OCc1ccccc1 [Compound 55, (8-(Benzyloxy)-7-ethoxyisoquinolin-4-yl)(4-ethoxy-3,5-dimethoxyphenyl)methanone]	422
CCCCCOc1c(OC)cc(Cc2cncc3c(O)c(OCC)ccc23)cc1OC [Compound 63, 4-(3,5-Dimethoxy-4-(pentyloxy)benzyl)-7-ethoxyisoquinolin-8-ol hydrochloride]	213
CCCOc1c(OC)cc(Cc2cncc3c(OC(=S)N(C)C)c(OCC)ccc23)cc1OC [Compound 68, O-(4-(3,5-Dimethoxy-4-propoxybenzyl)-7-ethoxyisoquinolin-8-yl) dimethylcarbamothioate hydrochloride]	152
CCOc1ccc2c(Cc3cc(Cl)c(OC)c(Cl)c3)cncc2c1O [Compound 69, 4-(3,5-Dichloro-4-methoxybenzyl)-7-ethoxyisoquinolin-8-ol hydrochloride]	238

Compound	IC50 [nM]
CCOc1ccc2c(Cc3cc(I)c(OC)c(I)c3)cncc2c1O [Compound 70, 4-(3,5-Diiodo-4-methoxybenzyl)-7-ethoxyisoquinolin-8-ol hydrochloride]	92.8
CCOc1ccc2c(Cc3cc(Br)c(OC)c(OC)c3)cncc2c1O [Compound 71, 4-(3-Bromo-4,5-dimethoxybenzyl)-7-ethoxyisoquinolin-8-ol hydrochloride]	26
CCOc1ccc2c(Cc3cc(I)c(OC)c(OC)c3)cncc2c1O [Compound 72, 7-Ethoxy-4-(3-iodo-4,5-dimethoxybenzyl)isoquinolin-8-ol hydrochloride]	18.3
CCOc1ccc2c(Cc3cc(OC)c(CC)c(OC)c3)cncc2c1O [Compound 73, 7-Ethoxy-4-(4-ethyl-3,5-dimethoxybenzyl)isoquinolin-8-ol hydrochloride]	335
CCOc1ccc2c(Cc3cc(OC)c(OCC)c([N+](=O)[O-])c3)cncc2c1O [Compound 74, 7-ethoxy-4-(4-ethoxy-3-methoxy-5-nitrobenzyl)isoquinolin-8-ol hydrochloride]	238
CCOc1ccc2c(Cc3cc(N)c(OCC)c(OC)c3)cncc2c1O [Compound 75, 4-(3-Amino-4-ethoxy-5-methoxybenzyl)-7-ethoxyisoquinolin-8-ol hydrochloride]	236
CCOc1ccc2c(Cc3cc(OC)c(N4CCCC4)c(OC)c3)cncc2c1O [Compound 76, 4-(3,5-Dimethoxy-4-(pyrrolidin-1-yl)benzyl)-7-ethoxyisoquinolin-8-ol hydrochloride]	312
CCOc1ccc2c(Cc3cc(Br)c(OCC)c(OC)c3)cncc2c1O [Compound 77, 4-(3-Bromo-4-ethoxy-5-methoxybenzyl)-7-ethoxyisoquinolin-8-ol hydrochloride]	48.6
CCOc1ccc2c(C(=O)c3cc(OC)c(OCC(C)C)c(OC)c3)cncc2c1O [Compound 79, (7-Ethoxy-8-hydroxyisoquinolin-4-yl)(4-isobutoxy-3,5-dimethoxyphenyl)methanone hydrochloride]	12.1
CCOc1ccc2c(Cc3cc(OC)c(OC)c(OCC(F)(F)F)c3)cncc2c1O [Compound 87, 4-(3,4-Dimethoxy-5-(2,2,2-trifluoroethoxy)benzyl)-7-ethoxyisoquinolin-8-ol hydrochloride]	254
CCOc1ccc2c(Cc3cc(OC)c(OC)c(OC)c3)cncc2c1NC [Compound 92, 7-Ethoxy-N-methyl-4-(3,4,5-trimethoxybenzyl)isoquinolin-8-amine dihydrochloride]	943
CCOc1ccc2c(Cc3cc(OC)c(OC)c(OC)c3)cncc2c1NCC(=O)OC [Compound 93, Methyl 2-(7-ethoxy-4-(3,4,5-trimethoxybenzyl)isoquinolin-8-ylamino)acetate dihydrochloride]	334
C=C(c1cc(OC)c(OC)c(OC)c1)c1cncc2c(O)c(OCC)ccc12 [Compound 95, 7-Ethoxy-4-(1-(3,4,5-trimethoxyphenyl)vinyl)isoquinolin-8-ol hydrochloride]	49.7
CCOc1ccc2c(Cc3cc(OC)c(OC)c([N+](=O)[O-])c3)cncc2c1O [Compound 103, 4-(3,4-Dimethoxy-5-nitrobenzyl)-7-ethoxyisoquinolin-8-ol hydrochloride]	138
CCOc1ccc2c(C(=O)c3cc(OC)c(OC)c(OC)c3)cncc2c1NS(=O)(=O)NC(=O)OC(C)(C)C [Compound 104, tert-Butyl N-(7-ethoxy-4-(3,4,5-trimethoxybenzoyl)isoquinolin-8-yl)sulfamoylcarbamate]	38.8
CCOc1ccc2c(Cc3cc(OC)c(OC)c(OC)c3)cncc2c1Cl [Compound 106, 8-Chloro-7-ethoxy-4-(3,4,5-trimethoxybenzyl)isoquinoline hydrochloride]	885
CCOc1ccc2c(Cc3cc(OC)c(OC)c(OC)c3)cncc2c1N=[N+]=[N-] [Compound 107, 8-Azido-7-ethoxy-4-(3,4,5-trimethoxybenzyl)isoquinoline]	575
CCOc1ccc2c(C(=O)c3cc(OC)c(OC)c(OC)c3)cncc2c1N=[N+]=[N-] [Compound 108, 8-Azido-7-ethoxy-4-(3,4,5-trimethoxybenzoyl)isoquinoline]	74.8
CCOc1ccc2c(C(=O)c3cc(OC)c(OC)c(OC)c3)cncc2c1OC(=O)C(C)(C)C [Compound 109, 7-Ethoxy-4-(3,4,5-trimethoxybenzoyl)isoquinolin-8-yl pivalate]	67.9
CCOc1ccc2c(Cc3cc(OC)c(OC)c(OC)c3Cl)cncc2c1O [Compound 110, 4-(2-Chloro-3,4,5-trimethoxybenzyl)-7-ethoxyisoquinolin-8-ol hydrochloride]	68
